Measurements taken from patent US11566007B2, “Ras inhibitors” (Revolution Medicines, Inc., priority 2019, dated 2023).
“And” between values parts separate entries of the source, which are not always exact repeats. Equal values may be shown once.

Columns and labels:
[1] = tested on: NCI-H358 cells (K-Ras G12C); assay: Potency assay: pERK in NCI-H358 cells; type: cell-based, human; details: Homo sapiens, NCI-H358; H358 KRAS G12C; read-out: pERK EC50
Outline: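 Inhibition of cellular pERK after a 4 h treatment, detected by AlphaLISA or In-Cell Western. IC50 from a four-parameter concentration-response fit.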

NCI-H358 (K-Ras G12C) = assay: CellTiter-Glo cell viability assay, NCI-H358; type: cell-based, human; details: Homo sapiens, NCI-H358, 120 h, NCI-H358, 5-day treatment; class symbols; read-out: Additional H358 Cell Viability assay data (K-Ras G12C, IC50)
Outline: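 Compounds were dispensed directly onto K-Ras mutant cells and incubated until day 5, then plates were equilibrated to room temperature for about 30 minutes before CellTiter-Glo luminescence. Signals were normalized as (sample/average DMSO)*100 and fitted by four-parameter logistic fit.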

K-Ras G12C = K-Ras G12C (Homo sapiens (Human), UniProt P01116+P62937, G12C); assay: Ras-Raf (BRAF RBD) disruption / FRET / MOA assay, KRAS G12C; type: biochemical; details: KRAS G12C; Ras-Raf disruption/FRET/MOA assay; read-out: IC50* KRAS G12C FRET data
Chain of K-Ras G12C (P01116-2 other isoform, or with tags, fused parts or gaps G12C): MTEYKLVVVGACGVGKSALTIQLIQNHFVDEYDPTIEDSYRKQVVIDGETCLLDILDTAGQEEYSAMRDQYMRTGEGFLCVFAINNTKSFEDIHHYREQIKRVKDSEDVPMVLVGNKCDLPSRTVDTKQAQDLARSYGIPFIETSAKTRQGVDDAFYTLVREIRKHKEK
Chain of K-Ras G12C (P62937 whole entry): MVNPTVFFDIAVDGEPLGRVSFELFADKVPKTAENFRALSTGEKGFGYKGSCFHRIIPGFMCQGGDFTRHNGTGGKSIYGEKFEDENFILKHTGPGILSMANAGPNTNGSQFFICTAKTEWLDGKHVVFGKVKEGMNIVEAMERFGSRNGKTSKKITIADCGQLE
Outline: (§1)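 A 10-point, 3-fold dilution series topping at 30 μM final was incubated 3 h at 25° C with the Ras/cyclophilin A/BRAF RBD mixture.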

K-Ras G13C = K-Ras G13C (Homo sapiens (Human), UniProt P01116+P62937, G13C); assay: Ras-Raf (BRAF RBD) disruption / FRET / MOA assay, KRAS G13C; type: biochemical; details: KRAS G13C; Ras-Raf disruption/FRET/MOA assay; read-out: IC50* KRAS G13C FRET data
Chain of K-Ras G13C (P01116-2 other isoform, or with tags, fused parts or gaps G13C): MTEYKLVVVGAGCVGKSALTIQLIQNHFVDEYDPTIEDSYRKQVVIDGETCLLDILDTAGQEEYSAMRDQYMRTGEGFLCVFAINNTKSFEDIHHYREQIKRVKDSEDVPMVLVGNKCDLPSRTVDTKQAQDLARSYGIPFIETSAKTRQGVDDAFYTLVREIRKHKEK
Chain of K-Ras G13C (P62937 whole entry): as the sequence (P62937 whole entry) above
Outline: as §1

KRAS G12S = KRAS G12S (Homo sapiens (Human), UniProt P01116+P62937, G12S); assay: Ras-Raf (BRAF RBD) disruption / FRET / MOA assay, KRAS G12S; type: biochemical; details: Ras-Raf disruption/FRET/MOA assay; class symbols; read-out: KRAS G12S FRET data IC50
Chain of KRAS G12S (P01116-2 other isoform, or with tags, fused parts or gaps G12S): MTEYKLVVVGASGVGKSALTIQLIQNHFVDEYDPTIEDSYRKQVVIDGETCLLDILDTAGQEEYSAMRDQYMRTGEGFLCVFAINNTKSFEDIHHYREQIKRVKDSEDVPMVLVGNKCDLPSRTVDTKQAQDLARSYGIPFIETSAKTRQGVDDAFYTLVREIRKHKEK
Chain of KRAS G12S (P62937 whole entry): as the sequence (P62937 whole entry) above
Outline: as §1

KRAS G12D = KRAS G12D (Homo sapiens (Human), UniProt P01116+P62937, G12D); assay: Ras-Raf (BRAF RBD) disruption / FRET / MOA assay, KRAS G12D; type: biochemical; details: Ras-Raf disruption/FRET/MOA assay; class symbols; read-out: KRAS G12D FRET data IC50
Chain of KRAS G12D (P01116-2 other isoform, or with tags, fused parts or gaps G12D): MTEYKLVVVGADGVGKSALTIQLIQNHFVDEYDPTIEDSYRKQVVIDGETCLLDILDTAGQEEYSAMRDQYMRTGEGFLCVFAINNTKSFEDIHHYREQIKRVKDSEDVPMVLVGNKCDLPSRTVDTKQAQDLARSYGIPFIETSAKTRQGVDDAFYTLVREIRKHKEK
Chain of KRAS G12D (P62937 whole entry): as the sequence (P62937 whole entry) above
Outline: as §1

KRAS G12V = KRAS G12V (Homo sapiens (Human), UniProt P01116+P62937, G12V); assay: Ras-Raf (BRAF RBD) disruption / FRET / MOA assay, KRAS G12V; type: biochemical; details: read-out: IC50* KRAS G12V FRET data
Chain of KRAS G12V (P01116-2 other isoform, or with tags, fused parts or gaps G12V): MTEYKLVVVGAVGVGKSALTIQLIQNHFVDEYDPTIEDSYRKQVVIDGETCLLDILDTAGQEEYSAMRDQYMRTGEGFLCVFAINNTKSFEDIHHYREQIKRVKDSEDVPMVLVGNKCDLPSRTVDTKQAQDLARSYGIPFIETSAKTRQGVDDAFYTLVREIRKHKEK
Chain of KRAS G12V (P62937 whole entry): as the sequence (P62937 whole entry) above
Outline: as §1

KRAS WT = KRAS WT (Homo sapiens (Human), UniProt P01116+P62937); assay: Ras-Raf (BRAF RBD) disruption / FRET / MOA assay, KRAS WT; type: biochemical; details: read-out: IC50* KRAS WT FRET data
Chain of KRAS WT (P01116-2 other isoform, or with tags, fused parts or gaps): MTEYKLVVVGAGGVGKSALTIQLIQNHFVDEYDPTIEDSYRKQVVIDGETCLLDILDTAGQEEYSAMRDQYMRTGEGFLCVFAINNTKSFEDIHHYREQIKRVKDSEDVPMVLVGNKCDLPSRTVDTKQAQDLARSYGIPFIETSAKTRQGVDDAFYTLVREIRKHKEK
Chain of KRAS WT (P62937 whole entry): as the sequence (P62937 whole entry) above
Outline: as §1

KRAS G13D = KRAS G13D (Homo sapiens (Human), UniProt P01116+P62937, G13D); assay: Ras-Raf (BRAF RBD) disruption / FRET / MOA assay, KRAS G13D; type: biochemical; details: read-out: IC50* KRAS G13D FRET data
Chain of KRAS G13D (P01116-2 other isoform, or with tags, fused parts or gaps G13D): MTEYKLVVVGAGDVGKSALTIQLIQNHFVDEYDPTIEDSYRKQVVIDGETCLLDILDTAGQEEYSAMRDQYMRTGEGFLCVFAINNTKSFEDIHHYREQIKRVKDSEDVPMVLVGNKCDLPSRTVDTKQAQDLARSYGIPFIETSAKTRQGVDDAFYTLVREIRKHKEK
Chain of KRAS G13D (P62937 whole entry): as the sequence (P62937 whole entry) above
Outline: as §1

NRAS G12C = NRAS G12C (Homo sapiens (Human), UniProt P01111+P62937, G12C); assay: Ras-Raf (BRAF RBD) disruption / FRET / MOA assay, NRAS G12C; type: biochemical; details: read-out: IC50* NRAS G12C FRET data
Chain of NRAS G12C (P01111 whole entry G12C): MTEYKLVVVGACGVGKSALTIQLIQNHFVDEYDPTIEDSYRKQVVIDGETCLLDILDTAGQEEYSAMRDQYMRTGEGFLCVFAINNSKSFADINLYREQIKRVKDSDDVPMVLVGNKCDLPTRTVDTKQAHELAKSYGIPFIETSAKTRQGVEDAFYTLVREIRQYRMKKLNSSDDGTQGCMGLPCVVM
Chain of NRAS G12C (P62937 whole entry): as the sequence (P62937 whole entry) above
Outline: as §1

Row | SMILES | EC50 [1] | IC50 (NCI-H358 (K-Ras G12C)) | IC50 (K-Ras G12C) | IC50 (K-Ras G13C) | IC50 (KRAS G12S) | IC50 (KRAS G12D) | IC50 (KRAS G12V) | IC50 (KRAS WT) | IC50 (KRAS G13D) | IC50 (NRAS G12C)
1 | C=CC(=O)N1CC[C@H](C(=O)N(C)[C@H](C(=O)N[C@H]2Cc3cc(O)cc(c3)-c3ccc4c(c3)c(c(-c3cnccc3[C@H](C)OC)n4CC)CC(C)(C)COC(=O)[C@@H]3CCCN(N3)C2=O)C(C)C)C1 [Example A112] | < 5 µM | 0.01 to 0.1 µM | 0.1 to 1 µM | 1 to 10 µM | 1 to 10 µM | > 10 µM | 1 to 10 µM | 1 to 10 µM | 1 to 10 µM | 0.1 to 1 µM
2 | CCn1c(-c2ccccc2CN(C)C)c2c3cc(ccc31)-c1cc(O)cc(c1)C[C@H](NC(=O)[C@H](C(C)C)N(C)C(=O)c1ncc(NC(=O)/C=C/CN(C)C)n1C)C(=O)N1CCC[C@H](N1)C(=O)OCC(C)(C)C2 [Example A116] | < 5 µM | 0.1 to 1 µM | < 0.01 µM | 0.01 to 0.1 µM | > 10 µM | 1 to 10 µM | > 10 µM | 1 to 10 µM | 1 to 10 µM | < 0.01 µM
3 | C=CC(=O)N(C)CCC(=O)N(C)[C@H](C(=O)N[C@H]1Cc2cc(O)cc(c2)-c2ccc3c(c2)c(c(-c2cccnc2COC)n3CC)CC(C)(C)COC(=O)[C@@H]2CCCN(N2)C1=O)C(C)C [Example A117] | < 5 µM | 0.1 to 1 µM | 0.1 to 1 µM | 0.1 to 1 µM | 1 to 10 µM | > 10 µM | 1 to 10 µM | 1 to 10 µM | 1 to 10 µM | 0.1 to 1 µM
4 | C=CC(=O)N1CC[C@H](C(=O)N(C)[C@H](C(=O)N[C@H]2Cc3csc(n3)-c3ccc4c(c3)c(c(-c3cccnc3COC)n4CC)CC(C)(C)COC(=O)[C@@H]3CCCN(N3)C2=O)C(C)C)C1 [Example A118, (2S)-N-[(7S,13S)-21-ethyl-20-[2-(methoxymethyl)pyridin-3-yl]-17,17-dimethyl-8,14-dioxo-15-oxa-3-thia-9,21,27,28-tetraazapentacyclo[17.5.2.1^2,^5.1^9,^13.0^22,^26]octacosa-1(25),2(28),4,19,22(26),23-hexaen-7-yl]-3-methyl-2-{N-methyl-1-[(3S)-1-(prop-2-enoyl)pyrrolidin-3-yl]formamido}butanamide] | < 5 µM | 0.1 to 1 µM | 0.1 to 1 µM | > 10 µM | > 10 µM | > 10 µM | > 10 µM | > 10 µM | > 10 µM | 0.1 to 1 µM
5 | CCn1c(-c2cnccc2[C@H](C)OC)c2c3cc(ccc31)-c1cc(O)cc(c1)C[C@H](NC(=O)[C@H](C(C)C)N(C)C(=O)[C@H]1CCN(C(=O)C#CCN(C)C)C1)C(=O)N1CCC[C@H](N1)C(=O)OCC(C)(C)C2 [Example A123] | < 5 µM | < 0.01 µM | 0.01 to 0.1 µM | 0.01 to 0.1 µM | 0.1 to 1 µM | 0.1 to 1 µM | 0.1 to 1 µM | 0.1 to 1 µM | 0.1 to 1 µM | < 0.01 µM
6 | C=CC(=O)N1CCN(C(=O)N(C)[C@H](C(=O)N[C@H]2Cc3cc(O)cc(c3)-c3ccc4c(c3)c(c(-c3ccccc3CCOC)n4CC)CC(C)(C)COC(=O)[C@@H]3CCCN(N3)C2=O)C(C)C)C[C@@H]1COC [Example A125] | < 5 µM | > 1 µM | 0.1 to 1 µM | 0.1 to 1 µM | 1 to 10 µM | > 10 µM | 1 to 10 µM | 1 to 10 µM | 1 to 10 µM | 1 to 10 µM
7 | CCn1c(-c2ccccc2CN(C)C)c2c3cc(ccc31)-c1cc(O)cc(c1)C[C@H](NC(=O)[C@@H](C(C)C)N(C)C(=O)c1ncc(NC(=O)/C=C/CN(C)C)n1C)C(=O)N1CCC[C@H](N1)C(=O)OCC(C)(C)C2 [Example A126] | < 5 µM | > 1 µM | 0.01 to 0.1 µM | 0.1 to 1 µM | > 10 µM | > 10 µM | > 10 µM | > 10 µM | > 10 µM | 0.01 to 0.1 µM
8 | C=CC(=O)N1CC[C@H](C(=O)N(C)[C@H](C(=O)N[C@H]2Cc3cc(O)cc(c3)-c3ccc4c(c3)c(c(-c3ccc(COC)cc3CN(C)C)n4CC)CC(C)(C)COC(=O)[C@@H]3CCCN(N3)C2=O)C(C)C)C1 [Example A127] | < 5 µM | 0.1 to 1 µM | 0.01 to 0.1 µM | 0.1 to 1 µM | 0.1 to 1 µM | 1 to 10 µM | 0.1 to 1 µM | 1 to 10 µM | 1 to 10 µM | 0.01 to 0.1 µM
9 | C=CC(=O)N1CC[C@H](C(=O)N(C)[C@H](C(=O)N[C@H]2Cc3cc(O)cc(c3)-c3ccc4c(c3)c(c(-c3ccncc3CN(C)C)n4CC)CC(C)(C)COC(=O)[C@@H]3CCCN(N3)C2=O)C(C)C)C1 [Example A128] | < 5 µM | < 0.01 µM | 0.01 to 0.1 µM | 0.1 to 1 µM | 0.1 to 1 µM | 1 to 10 µM | 0.1 to 1 µM | 0.1 to 1 µM | 0.1 to 1 µM | 0.01 to 0.1 µM
10 | CCn1c(-c2cccnc2COC)c2c3cc(ccc31)-c1cc(O)cc(c1)C[C@H](NC(=O)[C@H](C(C)C)N(C)C(=O)[C@H]1CCN(C(=O)C#CCCN3CCOCC3)C1)C(=O)N1CCC[C@H](N1)C(=O)OCC(C)(C)C2 [Example A129] | < 5 µM | 0.01 to 0.1 µM | < 0.01 µM | 0.1 to 1 µM | 0.1 to 1 µM | 1 to 10 µM | 0.1 to 1 µM | 1 to 10 µM | 1 to 10 µM | < 0.01 µM
11 | CCn1c(-c2cnccc2[C@H](C)OC)c2c3cc(ccc31)-c1cccc(c1)C[C@H](NC(=O)[C@H](C1CCCC1)N(C)C(=O)[C@H]1CCN(C(=O)C#CCN(C)C)C1)C(=O)N1CCC[C@H](N1)C(=O)OCC(C)(C)C2 [Example A133] | < 5 µM | 0.01 to 0.1 µM | 10 nM to 100 nM and < 10 nM (2×) | 10 nM to 100 nM (2×) and 1 µM to 10 µM | 1 µM to 10 µM (2×) and > 10 µM | 1 to 10 µM | 1 µM to 10 µM (2×) and > 10 µM | 1 µM to 10 µM (2×) and > 10 µM | 1 to 10 µM | 10 nM to 100 nM and < 10 nM (2×)
12 | CCn1c(-c2cccnc2COC)c2c3cc(ccc31)-c1cc(O)cc(c1)C[C@H](NC(=O)[C@H](C(C)C)N(C)C(=O)[C@H]1CCN(C(=O)/C=C/CN3CCOCC3)C1)C(=O)N1CCC[C@H](N1)C(=O)OCC(C)(C)C2 [Example A134] | < 5 µM | 0.1 to 1 µM | 0.01 to 0.1 µM | 1 to 10 µM | 1 to 10 µM | 1 to 10 µM | 1 to 10 µM | 1 to 10 µM | 1 to 10 µM | 0.01 to 0.1 µM
13 | CCn1c(-c2cnccc2COC)c2c3cc(ccc31)-c1cncc(c1)C[C@H](NC(=O)[C@H](C(C)C)N(C)C(=O)[C@H]1CCN(C(=O)C#CCN(C)C)C1)C(=O)N1CCC[C@H](N1)C(=O)OCC(C)(C)C2 [Example A139] | < 5 µM | 0.1 to 1 µM | 0.01 to 0.1 µM | 1 to 10 µM | > 10 µM | 1 to 10 µM | > 10 µM | > 10 µM | > 10 µM | 0.1 to 1 µM
14 | CCn1c(-c2cnccc2[C@H](C)OC)c2c3cc(ccc31)-c1cccc(c1)C[C@H](NC(=O)[C@H](C(C)C)N(C)C(=O)[C@H]1CCN(C(=O)C#CCN(C)C)C1)C(=O)N1CCC[C@H](N1)C(=O)OCC(C)(C)C2 [Example A140] | < 5 µM | < 0.01 µM | < 0.01 µM | 0.01 to 0.1 µM | 1 to 10 µM | 1 to 10 µM | 1 to 10 µM | 1 to 10 µM | 1 to 10 µM | < 0.01 µM
15 | CCn1c(-c2cnccc2C(C)C)c2c3cc(ccc31)-c1cc(O)cc(c1)C[C@H](NC(=O)[C@H](C(C)C)N(C)C(=O)[C@H]1CCN(C(=O)C#CCN(C)C)C1)C(=O)N1CCC[C@H](N1)C(=O)OCC(C)(C)C2 [Example A141] | < 5 µM | < 0.01 µM | < 0.01 µM | 0.01 to 0.1 µM | 0.1 to 1 µM | 1 to 10 µM | 0.1 to 1 µM | 0.1 to 1 µM | 0.1 to 1 µM | < 0.01 µM
